Assays:
Type in all cases: cell-based
[1] = target: T1, TLR7 (Homo sapiens, UniProt Q9NYK1); experiment: PBMC assay for TLR7 (IFNα in supernatants by ELISA); design: Peripheral blood mononuclear cells (PBMCs) from human blood were isolated; endogenous in cells; host or cells: human PBMCs; settings: human PBMCs incubated with compound overnight, MC50 = concentration at which 50% of maximum induction is seen
T1 sequence (Q9NYK1 27-1049): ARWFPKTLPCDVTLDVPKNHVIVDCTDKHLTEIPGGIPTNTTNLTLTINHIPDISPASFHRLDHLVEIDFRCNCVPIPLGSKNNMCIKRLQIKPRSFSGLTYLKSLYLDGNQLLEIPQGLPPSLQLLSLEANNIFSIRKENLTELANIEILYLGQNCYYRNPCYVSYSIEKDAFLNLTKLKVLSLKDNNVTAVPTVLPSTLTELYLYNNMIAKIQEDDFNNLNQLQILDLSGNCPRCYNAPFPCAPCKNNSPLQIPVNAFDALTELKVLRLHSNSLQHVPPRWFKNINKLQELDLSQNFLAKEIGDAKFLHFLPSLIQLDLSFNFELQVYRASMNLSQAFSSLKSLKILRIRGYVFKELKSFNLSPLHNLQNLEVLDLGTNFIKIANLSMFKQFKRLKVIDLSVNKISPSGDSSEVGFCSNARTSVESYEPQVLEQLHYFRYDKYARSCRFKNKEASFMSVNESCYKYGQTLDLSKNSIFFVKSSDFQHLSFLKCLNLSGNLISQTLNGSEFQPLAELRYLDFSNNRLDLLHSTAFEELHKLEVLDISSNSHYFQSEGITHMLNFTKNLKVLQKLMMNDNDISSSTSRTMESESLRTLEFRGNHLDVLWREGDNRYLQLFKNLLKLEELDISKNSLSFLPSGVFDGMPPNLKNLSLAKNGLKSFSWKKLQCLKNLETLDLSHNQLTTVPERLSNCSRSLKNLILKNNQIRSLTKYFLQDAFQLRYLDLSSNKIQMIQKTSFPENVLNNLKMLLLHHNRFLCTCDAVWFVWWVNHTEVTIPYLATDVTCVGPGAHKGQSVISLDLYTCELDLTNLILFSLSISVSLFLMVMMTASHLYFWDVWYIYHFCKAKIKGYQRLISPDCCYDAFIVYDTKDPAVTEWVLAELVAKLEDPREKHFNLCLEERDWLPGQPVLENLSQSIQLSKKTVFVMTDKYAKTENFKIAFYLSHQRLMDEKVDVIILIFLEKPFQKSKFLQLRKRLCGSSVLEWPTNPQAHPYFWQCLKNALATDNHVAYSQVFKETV
Procedure: (§1) Peripheral blood mononuclear cells (PBMCs) from human blood were isolated using BD Vacutainer Cell Preparation Tubes with sodium citrate. Cells were incubated with compound overnight. TLR8 activity was assayed by measuring the amount of TNFα in supernatants by ELISA. TLR7 activity was assayed by measuring the amount of IFNα in supernatants by ELISA (R&D Systems). […] The results of this assay are shown below in Tables 2 and 3.
(§2) MC50 numbers are represented as factors of ten, for example, + indicates an MC50 value of X 10^4, or a value in the tens of thousands of nanomolar (nM range); ++ indicates an MC50 value of X 10^3, or a value in the thousands; +++ indicates an MC50 value of X 10^2, or a value in the hundreds; and ++++ indicates an MC50 value of X 10^1 or 10^0, or a value in the tens or ones.

[2] = target: T2, TLR8 (Homo sapiens, UniProt Q9NR97); experiment: PBMC assay for TLR8 (TNFα in supernatants by ELISA); design: Peripheral blood mononuclear cells (PBMCs) from human blood were isolated; endogenous in cells; host or cells: human PBMCs; settings: human PBMCs incubated with compound overnight, MC50 = concentration at which 50% of maximum induction is seen
T2 sequence (Q9NR97 27-1041): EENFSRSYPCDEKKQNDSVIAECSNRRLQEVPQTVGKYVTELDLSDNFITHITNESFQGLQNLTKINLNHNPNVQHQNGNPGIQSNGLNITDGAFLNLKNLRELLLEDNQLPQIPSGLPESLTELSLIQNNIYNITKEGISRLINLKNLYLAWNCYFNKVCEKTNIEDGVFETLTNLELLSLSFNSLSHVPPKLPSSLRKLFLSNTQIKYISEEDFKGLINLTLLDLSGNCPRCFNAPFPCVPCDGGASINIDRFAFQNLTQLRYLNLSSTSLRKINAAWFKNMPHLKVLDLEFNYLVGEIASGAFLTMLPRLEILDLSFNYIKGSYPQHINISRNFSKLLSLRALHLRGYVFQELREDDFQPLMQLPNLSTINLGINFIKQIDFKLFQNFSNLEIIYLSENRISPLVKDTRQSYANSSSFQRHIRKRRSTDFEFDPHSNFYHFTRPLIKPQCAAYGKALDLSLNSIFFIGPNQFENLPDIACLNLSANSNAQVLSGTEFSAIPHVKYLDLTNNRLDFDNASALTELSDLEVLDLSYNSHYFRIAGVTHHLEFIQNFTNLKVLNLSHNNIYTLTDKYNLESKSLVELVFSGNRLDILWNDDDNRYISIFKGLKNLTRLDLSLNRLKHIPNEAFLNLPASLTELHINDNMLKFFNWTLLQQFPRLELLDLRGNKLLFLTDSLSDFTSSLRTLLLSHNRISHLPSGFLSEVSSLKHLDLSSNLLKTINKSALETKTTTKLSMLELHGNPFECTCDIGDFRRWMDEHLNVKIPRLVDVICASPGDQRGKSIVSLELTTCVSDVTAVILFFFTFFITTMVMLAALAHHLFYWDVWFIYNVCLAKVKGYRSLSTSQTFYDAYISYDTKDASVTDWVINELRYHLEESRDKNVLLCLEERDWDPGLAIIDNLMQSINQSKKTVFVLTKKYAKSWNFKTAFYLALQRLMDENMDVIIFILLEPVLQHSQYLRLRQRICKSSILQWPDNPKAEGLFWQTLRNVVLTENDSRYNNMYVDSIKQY
Procedure: as §1, §2

[3] = target: T2, TLR8; experiment: MC50 values for TLR8 activity (test not specified; procedures of Gorden et al. and Zhu et al.)
Description: (§3) Activity of the compounds can be assessed according to procedures described in, e.g., Gorden et al., Journal of Immunology 177, pp. 8164-8170 (2006) and Zhu et al., Molecular Immunology, vol. 45 (11), pp. 3238-3242 (2008).
MC50 values for TLR8 activity are, for example, as shown below: […]

[4] = target: T1, TLR7; experiment: MC50 values for TLR7 activity (test not specified; procedures of Gorden et al. and Zhu et al.)
Description: as §3
MC50 values for TLR7 activity are, for example, as shown below: […]

EC50 [1] [nM] | EC50 [2] [nM] | EC50 [3] [nM] | EC50 [4] [nM] | SMILES
1000 to 10000 | 1000 to 10000 |  |  | CCCN(CCCO)C(=O)C1=Cc2ccc(-c3ccc(CCC(=O)OCC(C)C)cc3)cc2N=C(N)C1 [Compound 219, Isobutyl 3-(4-((1E,4E)-2-amino-4-((3-hydroxypropyl)(propyl)carbamoyl)-3H-benzo[b]azepin-8-yl)phenyl)propanoate]
1000 to 10000 | 1 to 100 | 54 |  | CCCN(CCCO)C(=O)C1=Cc2ccc(-c3ccc(CC(=O)OCC)cc3)cc2N=C(N)C1 [Compound 214, Ethyl 2-(4-((1E,4E)-2-amino-4-((3-hydroxypropyl)(propyl)carbamoyl)-3H-benzo[b]azepin-8-yl)phenyl)acetate]
100 to 1000 | 1 to 100 | 33 | 358 | CCCN(CCCO)C(=O)C1=Cc2ccc(-c3ccc4c(c3)C(=O)OC4)cc2N=C(N)C1 [Compound 222, (1E,4E)-2-Amino-N-(3-hydroxypropyl)-8-((3-oxo-1,3-dihydroisobenzofuran-5-yl)-N-propyl-3H-benzo[b]azepine-4-carboxamide]
1000 to 10000 | 1000 to 10000 |  |  | CCCN(CCC)C(=O)C1=Cc2ccc(-c3ccc(CCC(=O)OCC)cc3)cc2N=C(N)C1 [Compound 193, Ethyl 3-(4-((1E,4E)-2-amino-4-(dipropylcarbamoyl)-3H-benzo[b]azepin-8-yl)phenyl)propanoate]
10000 to 100000 | 1 to 100 |  |  | CCCN(CCCO)C(=O)C1=Cc2ccc(-c3ccc(CC(=O)OC(C)C)cc3)cc2N=C(N)C1 [Compound 215, Isopropyl 2-(4-((1E,4E)-2-amino-4-((3-hydroxypropyl)(propyl)carbamoyl)-3H-benzo[b]azepin-8-yl)phenyl)acetate]
10000 to 100000 | 100 to 1000 |  |  | CCCN(CCC)C(=O)C1=Cc2ccc(-c3ccc(C4COC(=O)O4)cc3)cc2N=C(N)C1 (stereo not shown) [Compound 225, (1E,4E)-2-amino-8-(4-(2-oxo-1,3-dioxolan-4-yl)phenyl)-N,N-dipropyl-3H-benzo[b]azepine-4-carboxamide]
1000 to 10000 | 100 to 1000 | 195 |  | CCCN(CCC)C(=O)C1=Cc2ccc(-c3ccc(C4CCOC4=O)cc3)cc2N=C(N)C1 (stereo not shown) [Compound 223, (1E,4E)-2-Amino-8-(4-(2-oxotetrahydrofuran-3-yl)phenyl)-N,N-dipropyl-3H-benzo[b]azepine-4-carboxamide]
10000 to 100000 | 1000 to 10000 |  |  | NC1=Nc2cc(-c3ccc(C(=O)N4CCCC4)cc3)ccc2C=C(C(=O)NOCc2ccccc2)C1 [Compound 116, (1E,4E)-2-amino-N-(benzyloxy)-8-(4-(pyrrolidine-1-carbonyl)phenyl)-3H-benzo[b]azepine-4-carboxamide]
1000 to 10000 | 1 to 100 |  |  | CCCN(CCC)C(=O)C1=Cc2ccc(CCCN3CCOCC3)cc2N=C(N)C1 [Compound 184, (1E,4E)-2-amino-8-(3-morpholinopropyl)-N,N-dipropyl-3H-benzo[b]azepine-4-carboxamide]
1000 to 10000 | 1 to 100 | 8 |  | CCCN(CCC)C(=O)C1=Cc2ccc(-c3cncc(CO)c3)cc2N=C(N)C1 [Compound 183, (1E,4E)-2-amino-8-(5-(hydroxymethyl)pyridin-3-yl)-N,N-dipropyl-3H-benzo[b]azepine-4-carboxamide]
10000 to 100000 | 100 to 1000 | 363 |  | CCCN(CCC)C(=O)C1=Cc2ccc(-c3ccc(C(O)CO)cc3)cc2N=C(N)C1 (stereo not shown) [Compound 224, (1E,4E)-2-amino-8-(4-(1,2-dihydroxyethyl)phenyl)-N,N-dipropyl-3H-benzo[b]azepine-4-carboxamide]

Source: US9655904B2, “Substituted benzoazepines as toll-like receptor modulators” (VentiRx Pharmaceuticals, Inc., priority 2009, dated 2017)
